{"source": "paper PMC3731160", "about": "(ACS medicinal chemistry letters, 2013)", "key": {"[1]": {"molecular_target": "EP4 receptor (Homo sapiens, UniProt P35408)", "sequence (P35408 whole entry)": "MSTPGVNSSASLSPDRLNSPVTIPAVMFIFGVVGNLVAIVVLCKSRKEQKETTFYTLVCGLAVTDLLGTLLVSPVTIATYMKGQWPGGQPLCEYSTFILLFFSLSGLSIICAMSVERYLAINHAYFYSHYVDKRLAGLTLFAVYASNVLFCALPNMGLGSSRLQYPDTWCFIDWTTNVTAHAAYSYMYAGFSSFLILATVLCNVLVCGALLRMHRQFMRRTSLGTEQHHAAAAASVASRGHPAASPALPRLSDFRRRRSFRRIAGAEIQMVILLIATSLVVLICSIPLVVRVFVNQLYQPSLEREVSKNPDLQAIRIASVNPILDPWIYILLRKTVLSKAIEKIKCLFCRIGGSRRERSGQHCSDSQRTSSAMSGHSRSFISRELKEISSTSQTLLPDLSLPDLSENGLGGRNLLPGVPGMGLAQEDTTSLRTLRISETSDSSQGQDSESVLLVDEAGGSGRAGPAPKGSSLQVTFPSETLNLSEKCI", "settings": "for inhibition of EP4 receptor: up to 40 µM, agonist saturated conditions"}, "[2]": {"assay": "Metabolic stability in pooled human liver microsomes", "settings": "1 and 10 µM"}, "[3]": {"assay": "Metabolic stability in pooled mouse liver microsomes", "settings": "1 and 10 µM"}, "[4]": {"assay": "Pharmacokinetics and brain permeability in female C57Bl/6 mice", "settings": "1h and 2h"}, "[5]": {"assay": "Aqueous solubility in PBS buffer by nephelometry", "settings": "pH 7"}, "[6]": {"tested_on": "β2-Adrenergic receptors", "assay": "β2-adrenergic receptor counter assay", "settings": "up to 40 µM, agonist saturated conditions"}, "[7]": {"molecular_target": "EP2 receptor (Homo sapiens, UniProt P43116)", "sequence (P43116 whole entry)": "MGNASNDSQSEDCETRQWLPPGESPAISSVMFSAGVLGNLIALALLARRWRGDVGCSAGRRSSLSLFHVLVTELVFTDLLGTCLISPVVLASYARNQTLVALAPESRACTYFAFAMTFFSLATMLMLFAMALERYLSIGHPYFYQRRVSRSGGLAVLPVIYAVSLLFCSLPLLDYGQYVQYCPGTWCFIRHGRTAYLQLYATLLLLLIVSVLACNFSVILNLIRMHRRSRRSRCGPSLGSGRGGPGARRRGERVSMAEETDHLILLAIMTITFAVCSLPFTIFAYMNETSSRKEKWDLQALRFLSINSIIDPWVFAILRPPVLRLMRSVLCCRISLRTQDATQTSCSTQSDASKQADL", "assay": "PGE2-induced cAMP accumulation", "format": "cell-based", "settings": "competitive antagonism of EP2"}, "[8]": {"molecular_target": "IP receptor (Homo sapiens, UniProt P43119)", "sequence (P43119 whole entry)": "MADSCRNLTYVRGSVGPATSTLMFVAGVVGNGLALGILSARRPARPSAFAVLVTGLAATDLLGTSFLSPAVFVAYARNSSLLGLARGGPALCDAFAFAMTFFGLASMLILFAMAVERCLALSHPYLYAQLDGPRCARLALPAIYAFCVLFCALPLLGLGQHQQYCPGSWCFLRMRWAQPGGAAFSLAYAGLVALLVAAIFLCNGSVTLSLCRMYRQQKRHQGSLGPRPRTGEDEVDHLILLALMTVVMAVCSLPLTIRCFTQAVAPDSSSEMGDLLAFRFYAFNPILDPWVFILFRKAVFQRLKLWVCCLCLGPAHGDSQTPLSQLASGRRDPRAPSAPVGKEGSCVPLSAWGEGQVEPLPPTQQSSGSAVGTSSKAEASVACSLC", "assay": "cell-based"}, "[9]": {"tested_on": "P388D1 macrophages", "assay": "Butaprost-induced mRNA expression of inflammatory markers in P388D1 macrophages", "format": "cell-based"}}, "note": "Like-named read-outs stand apart in the source and are kept apart here."}
{"smiles": "COc1cc(NS(=O)(=O)c2ccc(NC(=S)NC(=O)c3sc4cc(F)ccc4c3Cl)cc2)nc(OC)n1", "note": "[compound 8]", "values": [{"measurement": "KB (µM) EP4", "setting": "[1]; Schild KB, average of 2–5 independent experiments", "result": "submicromolar"}]}
{"smiles": "COc1cc(NS(=O)(=O)c2ccc(NC(=S)NC(=O)/C=C/c3ccc(F)cc3)cc2)ncn1", "note": "[compound 6]", "values": [{"measurement": "compound remaining at 60 minutes", "setting": "[2]", "result": "40–60%"}, {"measurement": "compound remaining at 60 minutes", "setting": "[3]", "result": "40–60%"}]}
{"smiles": "CCc1nnc(NS(=O)(=O)c2ccc(NC(=S)NC(=O)/C=C/c3ccc(F)cc3)cc2)s1", "note": "[TG6-129, (E)-N-((4-(N-(5-ethyl-1,3,4-thiadiazol-2-yl)sulfamoyl)phenyl)carbamothioyl)-3-(4-fluorophenyl)acrylamide]", "values": [{"measurement": "compound found in brain samples", "setting": "[4]; 5mg/kg ip", "result": "no detectable amount"}, {"measurement": "compound found in brain samples", "setting": "[4]; 10 mg/kg oral gavage", "result": "no detectable amount"}, {"measurement": "solubility", "setting": "[5]", "result": 145, "unit": "µM"}, {"measurement": "inhibition of β2-Adrenergic receptor", "setting": "[6]", "result": "without affecting"}, {"measurement": "inhibition of β2-Adrenergic receptor", "setting": "[6]; listed as 1", "result": "no inhibition"}, {"measurement": "compound remaining at 60 minutes", "setting": "[2]", "result": "40–60%"}, {"measurement": "Schild regression slope", "setting": "[7]", "result": 1.2}, {"measurement": "inhibition of EP4 receptor", "setting": "[1]", "result": "without affecting"}, {"measurement": "inhibition of EP4 receptor", "setting": "[1]; listed as 1", "result": "no inhibition"}, {"measurement": "Kb", "setting": "[8]", "result": 199, "unit": "nM"}, {"measurement": "compound remaining at 60 minutes", "setting": "[3]", "result": "40–60%"}]}
{"smiles": "CCCC1([C@H](O)C/C=C/[C@H]2[C@H](O)CC(=O)[C@@H]2CCCCCCC(=O)OC)CCC1", "note": "[butaprost]", "values": [{"measurement": "mRNA expression of COX-2, IL-1β, IL-6, IL-12 (p40), IL-17, IL-23, TNF-α", "setting": "[9]; butaprost 10 µM, 2 h", "result": "significantly elevated"}, {"measurement": "expression of EP2 receptor mRNA", "setting": "[9]; butaprost, 2h", "result": "only a slight increase"}]}
